Experiments:
[1] = target: T1, CDK2/CycE (Homo sapiens, UniProt P24941); experiment: CDK2/CycE high ATP kinase assay (TR-FRET, Method 2b); assay type: biochemical; details: 2 mM ATP
T1 construct: GST; purchased ProQinase GmbH (Freiburg, Germany); host or cells: insect cells (Sf9)
Experimental: 2b. CDK2/CycE High ATP Kinase Assay:
CDK2/CycE-inhibitory activity of compounds of the present invention at 2 mM adenosine-tri-phosphate (ATP) was quantified employing the CDK2/CycE TR-FRET (TR-FRET=Time Resolved Fluorescence Resonance Energy Transfer) assay as described in the following paragraphs.
Recombinant fusion proteins of GST and human CDK2 and of GST and human CycE, expressed in insect cells (Sf9) and purified by Glutathion-Sepharose affinity chromatography, were purchase from ProQinase GmbH (Freiburg, Germany). As substrate for the kinase reaction biotinylated peptide biotin-Ttds-YISPLKSPYKISEG (C-terminus in amid form) was used which can be purchased e.g. from the company JERINI peptide technologies (Berlin, Germany).
(§1) For the assay 50 nl of a 100 fold concentrated solution of the test compound in DMSO was pipetted into a black low volume 384 well microtiter plate (Greiner Bio-One, Frickenhausen, Germany), 2 μl of a solution of CDK2/CycE in aqueous assay buffer [50 mM Tris/HCl pH 8.0, 10 mM MgCl2, 1.0 mM dithiothreitol, 0.1 mM sodium ortho-vanadate, 0.01% (v/v) Nonidet-P40 (Sigma)] were added and the mixture was incubated for 15 min at 22° C. to allow pre-binding of the test compounds to the enzyme before the start of the kinase reaction. […] The concentration of CDK2/CycE was adjusted depending of the activity of the enzyme lot and was chosen appropriate to have the assay in the linear range, typical concentrations were in the range of 15 ng/ml. The reaction was stopped by the addition of 5 μl of a solution of TR-FRET detection reagents (0.2 μM streptavidine-XL665 [Cisbio Bioassays, Codolet, France] and 1 nM anti-RB(pSer807/pSer811)-antibody from BD Pharmingen [#558389] and 1.2 nM LANCE EU-W1024 labeled anti-mouse IgG antibody [Perkin-Elmer, product no. AD0077, as an alternative a Terbium-cryptate-labeled anti-mouse IgG antibody from Cisbio Bioassays can be used]) in an aqueous EDTA-solution (100 mM EDTA, 0.2% (w/v) bovine serum albumin in 100 mM HEPES pH 7.5).
(§2) The resulting mixture was incubated 1 h at 22° C. to allow the formation of complex between the phosphorylated biotinylated peptide and the detection reagents. Subsequently the amount of phosphorylated substrate was evaluated by measurement of the resonance energy transfer from the Eu-chelate to the streptavidine-XL. Therefore, the fluorescence emissions at 620 nm and 665 nm after excitation at 350 nm were measured in a TR-FRET reader, e.g. a Rubystar (BMG Labtechnologies, Offenburg, Germany) or a Viewlux (Perkin-Elmer). The ratio of the emissions at 665 nm and at […] was taken as the measure for the amount of phosphorylated substrate. The data were normalised (enzyme reaction without inhibitor=0% inhibition, all other assay components but no enzyme=100% inhibition).

[2] = target: T2, CDK9/CycT1 (Homo sapiens, UniProt P50750); experiment: CDK9/CycT1 kinase assay (TR-FRET, Method 1a); assay type: biochemical; details: for IC50: Method 1a, 10 μM ATP; for Selectivity CDK9 over CDK2: IC50 (CDK2)/IC50 (CDK9): Methods 1a and 2a, minimal values where CDK9 IC50 is at the assay limit
T2 construct: Recombinant full-length His-tagged human CDK9 and CycT1; His; purchased Invitrogen PV4131; host or cells: insect cells
T2 sequence (P50750 whole entry): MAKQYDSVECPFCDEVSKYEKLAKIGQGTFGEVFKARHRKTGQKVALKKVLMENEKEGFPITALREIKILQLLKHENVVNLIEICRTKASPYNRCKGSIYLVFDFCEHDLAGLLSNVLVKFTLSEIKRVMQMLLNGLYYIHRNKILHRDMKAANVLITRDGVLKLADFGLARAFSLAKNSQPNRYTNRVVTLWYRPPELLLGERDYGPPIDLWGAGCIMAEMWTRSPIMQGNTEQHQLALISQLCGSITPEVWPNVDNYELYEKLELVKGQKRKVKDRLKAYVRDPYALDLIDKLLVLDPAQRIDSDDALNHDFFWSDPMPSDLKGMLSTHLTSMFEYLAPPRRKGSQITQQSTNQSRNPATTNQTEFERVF
T2 sequence (O60563 whole entry partner): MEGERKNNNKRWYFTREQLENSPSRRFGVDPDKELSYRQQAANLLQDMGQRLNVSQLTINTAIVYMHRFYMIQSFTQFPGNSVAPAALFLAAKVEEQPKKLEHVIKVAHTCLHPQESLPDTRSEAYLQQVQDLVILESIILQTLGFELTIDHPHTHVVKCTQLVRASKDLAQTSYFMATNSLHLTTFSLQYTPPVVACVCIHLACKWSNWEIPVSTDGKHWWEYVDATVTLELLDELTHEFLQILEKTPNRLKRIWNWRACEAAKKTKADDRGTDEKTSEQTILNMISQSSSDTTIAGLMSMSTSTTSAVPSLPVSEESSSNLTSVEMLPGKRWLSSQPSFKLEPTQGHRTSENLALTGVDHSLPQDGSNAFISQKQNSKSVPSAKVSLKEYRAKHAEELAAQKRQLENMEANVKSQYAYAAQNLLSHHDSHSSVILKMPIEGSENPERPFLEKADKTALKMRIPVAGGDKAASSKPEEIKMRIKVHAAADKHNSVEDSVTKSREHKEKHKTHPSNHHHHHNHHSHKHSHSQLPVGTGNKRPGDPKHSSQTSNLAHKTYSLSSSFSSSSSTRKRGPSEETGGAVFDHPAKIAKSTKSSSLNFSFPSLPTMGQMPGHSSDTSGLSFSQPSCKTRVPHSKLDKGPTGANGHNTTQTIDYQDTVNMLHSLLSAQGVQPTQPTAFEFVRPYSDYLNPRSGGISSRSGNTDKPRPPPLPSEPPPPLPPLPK
Description: 1a. CDK9/CycT1 Kinase Assay:
CDK9/CycT1-inhibitory activity of compounds of the present invention was quantified employing the CDK9/CycT1 TR-FRET assay as described in the following paragraphs:
as §1, with “Recombinant full-length His-tagged human CDK9 and CycT1, expressed in insect cells and purified by Ni-NTA affinity chromatography, were purchased from Invitrogen (Cat. No PV4131). As substrate for the kinase reaction biotinylated peptide biotin-Ttds-YISPLKSPYKISEG (C-terminus in amid form) was used which can be purchased e.g. from the company JERINI Peptide Technologies (Berlin, Germany). For” for “For”, “CDK9/CycT1” for “CDK2/CycE”, “1 μg/mL.” for “15 ng/ml.”, “AD0077])” for “AD0077, as an alternative a Terbium-cryptate-labeled anti-mouse IgG antibody from Cisbio Bioassays can be used])”
as §2, with “nm was” for “nm were”, “a HTRF” for “a TR-FRET”

Row | Compound | IC50 [1] [nM] | IC50 [2] [nM] | Selectivity CDK9 over CDK2: IC50 (CDK2)/IC50 (CDK9) [2]
1 | CS(=O)(Cc1cc2nc(c1)OCCCOc1cc(F)ccc1-c1cc(ncc1F)N2)=NC(=O)OCCCl (racemic) [Example 21, (rac)-2-chloroethyl [{[15,19-difluoro-3,4-dihydro-2H,11H-10,6-(azeno)-12,16-(metheno)-1,5,11,13-benzodioxadiazacyclooctadecin-8-yl]methyl}(methyl)oxido-λ^6-sulfanylidene]carbamate] | 74.8 | 7.3 | 1.6
2 | CS(=O)(Cc1cc2nc(c1)OCCCOc1cc(F)ccc1-c1cc(ncc1F)N2)=NS(=O)(=O)CCN (racemic) [Example 23, (rac)-2-amino-N-[{[15,19-difluoro-3,4-dihydro-2H,11H-10,6-(azeno)-12,16-(metheno)-1,5,11,13-benzodioxadiazacyclooctadecin-8-yl]methyl}(methyl)oxido-λ^6-sulfanylidene]ethanesulfonamide] | 272 | 8.7 | 3.5
3 | CS(=O)(Cc1cc2nc(c1)OCCCOc1cc(F)ccc1-c1cc(ncc1F)N2)=NS(=O)(=O)CCN.O=C(O)C(F)(F)F (racemic) [Example 24, (rac)-2-{[{[15,19-difluoro-3,4-dihydro-2H,11H-10,6-(azeno)-12,16-(metheno)-1,5,11,13-benzodioxadiazacyclooctadecin-8-yl]methyl}(methyl)oxido-λ^6-sulfanylidene]sulfamoyl}ethanaminium trifluoroacetate] | 166 | 2.2 | 6.2
4 | CS(=O)(Cc1cc2nc(c1)OCCCOc1cc(F)ccc1-c1cc(ncc1F)N2)=NC(=O)OCCN (racemic) [Example 25, (rac)-2-aminoethyl [{[15,19-difluoro-3,4-dihydro-2H,11H-10,6-(azeno)-12,16-(metheno)-1,5,11,13-benzodioxadiazacyclooctadecin-8-yl]methyl}(methyl)oxido-λ^6-sulfanylidene]carbamate] | 18 | 4.3 | 1.3
5 | CSCc1cc2cc(c1)OCCCOc1cc(F)ccc1-c1nc(ncc1F)N2 [Example 2, 15,19-Difluoro-8-[(methylsulfanyl)methyl]-3,4-dihydro-2H,11H-12,16-(azeno)-10,6-(metheno)-1,5,11,13-benzodioxadiazacyclooctadecine] | 640 | 7.3 | 13.5
6 | CSCc1cc2nc(c1)OCCCOc1cc(F)ccc1-c1cc(ncc1F)N2 [Example 3, 15,19-Difluoro-8-[(methylsulfanyl)methyl]-3,4-dihydro-2H,11H-10,6-(azeno)-12,16-(metheno)-1,5,11,13-benzodioxadiazacyclooctadecine] | 128 | 6.8 | 6.0
7 | CSCc1cc2nc(c1)OCCOc1cc(F)ccc1-c1cc(ncc1F)N2 [Example 9, 14,18-Difluoro-7-[(methylsulfanyl)methyl]-2,3-dihydro-10H-9,5-(azeno)-11,15-(metheno)-1,4,10,12-benzodioxadiazacycloheptadecine] | > 20000 | 18 | 963.7
8 | CSCc1cc2nc(c1)OCCCCOc1cc(F)ccc1-c1cc(ncc1F)N2 [Example 12, 16,20-Difluoro-9-[(methylsulfanyl)methyl]-2,3,4,5-tetrahydro-12H-11,7-(azeno)-13,17-(metheno)-1,6,12,14-benzodioxadiazacyclononadecine] | 890 | 16.5 | 6.9
9 | ({[15,19-difluoro-3,4-dihydro-2H,11H-10,6-(azeno)-12,16-(metheno)-1,5,11,13-benzodioxadiazacyclooctadecin-8-yl]methyl}sulfonyl)acetic acid [Example 27] | 6.3 | 2.9 | 0.8

Second part, the compound after the results:

Row | IC50 [1] [nM] | IC50 [2] [nM] | Selectivity CDK9 over CDK2: IC50 (CDK2)/IC50 (CDK9) [2] | Compound
10 | 195 | 5.3 | 3.7 | CS(=O)(=O)N=S(C)(=O)Cc1cc2nc(c1)OCCCOc1cc(F)ccc1-c1cc(ncc1F)N2 (racemic) [Example 22, (rac)-N-[{[15,19-difluoro-3,4-dihydro-2H,11H-10,6-(azeno)-12,16-(metheno)-1,5,11,13-benzodioxadiazacyclooctadecin-8-yl]methyl}(methyl)oxido-λ^6-sulfanylidene]methanesulfonamide]
11 | 38.3 | 3 | 0.9 | CS(=N)(=O)Cc1cc2nc(c1)OCCCOc1cc(F)ccc1-c1cc(ncc1F)N2 (single isomer, unassigned; enantiomer 1) [Example 6, 15,19-Difluoro-8-[(S-methylsulfonimidoyl)methyl]-3,4-dihydro-2H,11H-10,6-(azeno)-12,16-(metheno)-1,5,11,13-benzodioxadiazacyclooctadecine; Enantiomer 1]
12 | 50.4 | 7.3 | 0.3 | CS(=N)(=O)Cc1cc2nc(c1)OCCCOc1cc(F)ccc1-c1cc(ncc1F)N2 (single isomer, unassigned; enantiomer 2) [Example 7, 15,19-Difluoro-8-[(S-methylsulfonimidoyl)methyl]-3,4-dihydro-2H,11H-10,6-(azeno)-12,16-(metheno)-1,5,11,13-benzodioxadiazacyclooctadecine; Enantiomer 2]
13 | 33.6 | 3.8 | 1.3 | CS(=O)(=O)Cc1cc2nc(c1)OCCCOc1cc(F)ccc1-c1cc(ncc1F)N2 [Example 8, 15,19-difluoro-8-[(methylsulfonyl)methyl]-3,4-dihydro-2H,11H-10,6-(azeno)-12,16-(metheno)-1,5,11,13-benzodioxadiazacyclooctadecine]
14 | 43.7 | 5.9 | 1.7 | NCCS(=O)(=O)Cc1cc2nc(c1)OCCCOc1cc(F)ccc1-c1cc(ncc1F)N2 [Example 26, 2-({[15,19-difluoro-3,4-dihydro-2H,11H-10,6-(azeno)-12,16-(metheno)-1,5,11,13-benzodioxadiazacyclooctadecin-8-yl]methyl}sulfonyl)ethanamine]

Source: patent US9963464B2, “Macrocyclic compounds” (Bayer Pharma Aktiengesellschaft, priority 2014, dated 2018)
